Reference: patent publication US9586985B2, “Organic compounds as proantigens for natural killer T cells” (Callaghan Innovation Research Limited, priority 2012, dated 2017)
Entries after “also recorded” stand apart in the source; their conditions may differ.

Columns and labels:
[1] = system: NKT cells / CD11c+ dendritic cells; assay: CD86 expression on splenic dendritic cells after injection (DC activation as measure of NKT cell activation); type: in vivo, C57BL/6 mice; conditions: 200 ng i.v. (FIG. 7: molar equivalent of 200 ng α-GalCer), spleens removed 20 h later, flow cytometry
Description: (§1) Groups of C57BL/6 mice (n=3) are injected intravenously with 200 ng of the indicated compounds and then the spleens are removed 20 h later for the analysis of CD86 expression on CD11c+ dendritic cells by antibody labelling and flow cytometry. Mean fluorescence index±SEM are presented.
as §1, with “200 ng of α-GalCer or an equivalent molar amount of the” for “200 ng of the”, “are presented. (Compound CN158A1b=CN158 formulated in accordance with Example 15. Compound CN158A=CN158 in water.)” for “are presented.”
Each compound of the invention is supplied as formulated product (see example 12), and diluted in phosphate-buffered saline (PBS) for injection (200 ng/mouse) by intravenous injection into the lateral tail vein. In humans the expected therapeutic dose lies in the 50-4800 (μg/m^2) range (Giaccone, Punt et al. 2002). Note, 200 ng in a mouse is a human equivalent dose of 30 μg/m^2.
All antibody labeling is performed on ice in FACS buffer (PBS supplemented with 1% FCS, 0.05% sodium azide, and 2 mM EDTA). Non-specific FcR-mediated antibody staining is blocked by incubation for 10 min with anti-CD16/32 Ab (24G2, prepared in-house from hybridoma supernatant). […]

[2] = HPLC-ESI-MSMS quantification of α-GalCer in test samples; type: physicochemical
Description: Quantification of the amount of α-GalCer in various test samples of compounds of the invention is made by HPLC-ESI-MSMS analysis using a Waters 2795 HPLC and a Waters Q-TOF Premier™ Tandem Mass Spectrometer. The chromatography used a Phenomenex Kinetex C18 […] 3.0×50 mm column eluting with isocratic methanol containing 10 mM ammonium formate+0.5% formic acid at a flow rate of 0.2 mL/min. α-GalCer is monitored by selective reactant monitoring of 858.7 to 696.7 Da. The estimate of amount of α-GalCer is made by comparison of ion count integrals to a standard curve run on the same day or by comparison to test samples spiked with a known amount of α-GalCer.
The level of α-GalCer is determined on freshly reconstituted formulated samples unless otherwise stated. The estimated maximum level of α-GalCer for key compounds is given below.

B16.OVA melanoma cells = assay: Anti-tumour activity against subcutaneous B16.OVA tumours, given with OVA protein; type: in vivo, C57BL/6 mice; conditions: i.v. with 200 μg OVA protein seven days after tumour challenge
Description: Progression of subcutaneous B16.OVA tumours is monitored in animals that are treated seven days after tumour challenge with intravenous OVA protein together with the indicated compounds, or treated with PBS. The mean tumour sizes per group (n=5)±SEM are shown.
Progression of subcutaneous B16.OVA tumours is monitored in animals that are treated seven days after tumour challenge with intravenous OVA protein together with the indicated compounds, or treated with PBS. The mean tumour sizes per group (n=5)±SEM are shown. […] (Compound CN158A=CN158 in water.)
Groups of C57BL/6 mice (n=5) receive a subcutaneous injection into the flank of 1×10^5 B16.OVA melanoma cells, which express a cDNA encoding the chicken ovalbumin (OVA) sequence. The different groups are treated 7 days later, when tumours are fully engrafted, by intravenous injection of one of the following; 200 μg OVA protein together with 200 ng α-GalCer, 200 μg OVA protein together with 200 ng of a compound of the invention, or PBS. Mice are monitored for tumour growth every 3-4 days, and tumour size for each group is calculated as the mean of the products of bisecting diameters (±SEM). Measurements are terminated for each group when the first animal develops a tumour exceeding 200 mm^2.

[3] = literature statement; cited from earlier work
[4] = system: SIINFEKL-specific T cells; assay: Peptide-specific T cell proliferation in vivo (adjuvant with OVA); design: species or system C57BL/6 mice; conditions: co-administered i.v. with OVA, molar dose equivalent to α-GalCer, blood after seven days
Description: The compounds are injected to give the equivalent molar dose as compared to α-GalCer. To increase sensitivity of the assay, all mice are initially donated a cohort of 10,000 SIINFEKL-specific T cells from a transgenic mouse encoding a T cell receptor for this antigen (OT-1 mice), which is undertaken by intravenous injection of the cells one day before the vaccines are administered. […] It is therefore possible to enumerate SIINFEKL-specific T cells in blood by flow cytometry using antibodies for CD45.1 together with antibodies for the transgenic T cell receptor (Vα2). […] Control animals are injected with the diluent phosphate-buffered saline (PBS). Each dot represents a different animal; mean per treatment group±SEM are presented. ***p<0.001, ** p<0.01, * p<0.05.
Pooled lymph node cell suspensions are prepared from animals of a cross between OT-I mice, which express a transgenic T cell receptor (TCR) specific for the ovalbumin epitope SIINFEKL in the context of H-2K^b molecules, and B6.SJL-Ptprc^a Pepc^b/BoyJ mice, which are congenic with C57BL/6 mice for the CD45.1^+ marker. The samples are enriched for CD8^+ cells using antibody coated magnetic beads (Miltenyi), and then transferred into C57BL/6 mice (1×10^4 per mouse). Groups of recipient animals (n=5) are immunized with compounds of the invention one day later. Doses are chosen to provide equivalent molar values of SIINFEKL peptide. […]

[5] = system: cytokines IL-12p70, IL-4 and IFN-g; assay: Cytokine release into serum after injection (cytokine bead array); type: in vivo, C57BL/6 mice; conditions: for cytokine profile in vivo compared to α-GalCer: 200 ng i.v. or molar equivalent
Description: (§2) Groups of C57BL/6 mice (n=3 per group) are injected intravenously with 200 ng of the indicated compounds, and then the serum is collected at the indicated times for analysis of cytokine levels by cytokine bead array technology.
as §2, with “ng of α-GalCer or an equivalent molar amount” for “ng”, “technology. (Compound CN158A1b=CN158 formulated in accordance with Example 15; Compound CN158A=CN158 in water.)” for “technology.”
Blood is collected from the lateral tail vein at different time intervals after glycolipid administration. Serum is collected after blood has clotted, and levels of cytokines IL-12p70, IL-4 and IFN-g are assessed by cytokine bead array technology (Bioplex, Biorad), according to the manufacturer's instructions.

Water solubility = type: physicochemical
[6] = non-formulated / unformulated sample (CN158*: aqueous solution)
[7] = freshly reconstituted formulated sample, estimated maximum level

| Compound | Max α-GalCer (ppm) [2, 6] | Max α-GalCer/injection [2, 6] [ng] | Max α-GalCer (ppm) [2, 7] | Max α-GalCer/injection [2, 7] [ng] | anti-tumour activity: growth of established B16.OVA tumours (B16.OVA melanoma cells) | SIINFEKL-specific T cell response in blood (adjuvant activity) [4] | water solubility (Water solubility) [mg/mL] | cytokine profile in vivo compared to α-GalCer ([5]; FIGS. 3 and 8) | other results |
| --- | --- | --- | --- | --- | --- | --- | --- | --- | --- |
| CCCCCCCCCCCCCCCCCCCCCCCCCC(=O)O[C@H](CCCCCCCCCCCCCC)[C@@H](O)[C@@H](N)CO[C@H]1O[C@H](CO)[C@H](O)[C@H](O)[C@H]1O [CN089, (2S,3S,4R)-2-Amino-1-O-α-D-galactopyranosyl-4-O-hexacosanoyl octadecane-1,3,4-triol] | – | – | – | – | – | – | – | – | DC activation: CD86 expression on splenic CD11c+ dendritic cells [1]: potently activates DCs; conversion of CN089 to α-GalCer after formulation ([2]; within 1 hour of formulation, LCMSMS): approximately 50% |
| CCCCCCCCCCCCCCCCCCCCCCCCCC(=O)O[C@H](CCCCCCCCCCCCCC)[C@@H](O)[C@H](CO[C@H]1O[C@H](CO)[C@H](O)[C@H](O)[C@H]1O)NC(=O)OCOP(=O)(O)O [CN131, (2S,3S,4R)-1-O-α-D-Galactopyranosyl-4-O-hexacosanoyl-2-phosphoryloxymethoxycarbonylamino octadecane-1,3,4-triol] | 6,000 (analysis on non- ppm | 1.2 | – | – | – | – | – | – | – |
| CCCCCCCCCCCCCCCCCCCCCCCCCC(=O)O[C@H](CCCCCCCCCCCCCC)[C@@H](O)[C@H](CO[C@H]1O[C@H](CO)[C@H](O)[C@H](O)[C@H]1O)NC(=O)OCOC(C)=O [CN136, (2S,3S,4R)-2-Acetoxymethoxycarbonylamino-1-O-α-D-galactopyranosyl-4-O-hexacosanoyl octadecane-1,3,4-triol] | – | – | 1,000 ppm | 0.2 | – | – | – | – | – |
| CCCCCCCCCCCCCCCCCCCCCCCCCC(=O)N[C@@H](CO[C@H]1O[C@H](CO)[C@H](O)[C@H](O)[C@H]1O)[C@H](O)[C@H](O)CCCCCCCCCCCCCC [α-GalCer, α-Galactosylceramide, reference compound] | – | – | – | – | provides therapeutic anti-tumour activity | induces a population of SIINFEKL-specific T cells | – | – | water solubility (in words) [3]: low water solubility; also recorded: poor solubility; time of peak IFN-γ level in serum ([5]; after injection, mice): 12 h; time of peak IL-4 level in serum ([5]; after injection, mice): 2 to 3 h; time of peak IL-12p70 level in serum ([5]; after injection, mice): 6 h |
| (2S,3S,4R)-1-O-α-D-Galactopyranosyl-4-hexacosanoyl-2-((4-(2-methoxy(poly(2-ethoxy))imino)pentanoyloxy)methoxycarbonylamino) octadecane-1,3,4-triol [CN147] | – | – | 615 ppm | 0.123 | – | – | ~0.5 | different cytokine profiles | course of IL-12p70 level in serum ([5]; 200 ng i.v., FIG. 3): still increasing through 6 to 12 h; ratio of IFN-γ to IL-4 in serum compared to α-GalCer ([5]; 200 ng i.v., FIG. 3): higher ratio of IFN-γ to IL-4 than that of α-GalCer |
| (2S,3S,4R)-1-O-α-D-Galactopyranosyl-4-hexacosanoyl-2-((4-(ω-methoxy(poly(ethyleneoxy))imino)pentanoyloxy)methyleneoxycarbonylamino) octadecane-1,3,4-triol [CN158] | 170 ppm | 0.24 | 180 ppm | 0.25 | provides therapeutic anti-tumour activity | induces a similar T cell expansion | ~38 | different cytokine profiles | overall levels of systemic cytokine production ([5]; 200 ng α-GalCer or equivalent i.v., FIGS. 3 and 8): no systemic cytokines are detected; also recorded: No detectable cytokines are observed |
